Values after ≈ are worked out from the molar mass of the structure shown. Where two headings read alike, the source gives them in different places.

Results on 3 molecules are retold here after patent US8193430B2, “Methods for separating carbon nanotubes” (The University of Connecticut, priority 2008, dated 2012).

Data set [1] can be described thus: Solubility of lumiflavin and FC12 in various solvents. In kind it is physicochemical. The conditions noted are these: organic solvent or mixture. An excerpt:
The facile nanotube individualization and high QYs afforded by FC12 in certain solvents, begs the question why these solvents behave so differently. The answer to this question is believed to originate from the relative solubility differences of the two FC12 sub-moieties (i.e., isoalloxazine ring and dodecyl side chain). For this, we procured 10-methyl isoalloxazine (lumiflavin), the closest analogue to the isoalloxazine ring, and investigated its solubility characteristics versus that of FC12. Table 1 tabulates the solubilities of lumiflavin and FC12 as a function of dielectric constant (∈) of various solvents. […] As solvent polarity increases (i.e., ethylacetate, THF and acetone), their solubilities increase accordingly. […] Such behavior is believed to originate from the moderate-strong H-bonding ability of pyridine and DMF, capable of dissociating the H-bonded FC12 ribbon responsible for nanotube-dispersion. […] Two distinct regimes can be discerned, with high and low QYs for low and medium polarity solvents, respectively. For both regimes, the increase in FC12 solubility was followed by a decrease in QY. Since H-bonding is responsible for both helix stability and FC12/lumiflavine dissolution, increasing solvent polarity is expected to increase the helix dissociation constant and render FC12-wrapped nanotubes more prone to bundling and less capable to desorb 1,4-endoperoxide defects. On the basis of the observed aggregation tendencies, the low QYs in regime B appear to be dominated by nanotube bundling. In low-polarity solvents, the tight helical wrapping prevents nanotube bundling, which results in higher QY. Moreover, the proportionality of the helix dissociation constant to the FC12 solubility, explains the linear dependence of 1,4-endoperoxide defect removal along the one dimensional SWNT structure.

Data set [2] in a line: Solubility of riboflavin in neutral aqueous media (SWNT dispersion). In kind it is physicochemical. How it is done: A representative procedure for dispersing SWNTs with flavin mononucleotide (FMN), FAD and riboflavin involves a 4 hours cup horn sonication of SWNTs in H2O or D2O. This is followed by 2 hours of centrifugation at 15 kg, where the upper 70 to 80% of the supernatant was decanted for further investigation. As noted above, the FIG. 1 illustrates the chemical structure of riboflavin, FMN, and FAD used for such aqueous dispersion of SWNTs. While the basic flavin moiety is hydrophobic, these flavin derivatives have water-miscible tail groups. Such amphiphilic structures together with the aforementioned strong π-π interactions with both metallic and semiconducting SWNTs, can explain the effective nanotube dispersion in aqueous media.
FIG. 6 illustrates the UV-Vis-NIR spectra of HiPco dispersions with FMN, FAD, and riboflavin. The first (E11^S) and second (E22^S) optical transitions of semiconducting SWNTs can be witnessed in […] range, respectively. Those E11^S and E22^S features are clearly apparent for the FMN and FAD spectra, which are in good accordance with that of SDBS-dispersed HiPco SWNTs. […] Upon sonication of riboflavin-SWNT in basic media (pH 11), the resulting dispersions recover the aforementioned E11^S and E22^S features (data not shown), which indicates the successful dispersion of SWNTs. […]

Broadly, the solubility is the dissolved amount per volume that the medium holds. For the molecule `CCCCCCCCCCCCn1c2nc(=O)[nH]c(=O)c-2nc2cc(C)c(C)cc21` [FC12, 10-dodecyl-7,8-dimethyl-10H-benzo[g]pteridine-2,4-dione], the solubility is 22900 µg/mL (≈ 55700 µM) in data set [1] (DMF (N,N-dimethyl formamide), in DMF, read-out: FC12 solubility); 11000 µg/mL (≈ 26900 µM) in data set [1] (THF (tetrahydrofuran), in THF, read-out: FC12 solubility); 1810 µg/mL (≈ 4410 µM) in data set [1] (in acetone, read-out: FC12 solubility); 310 µg/mL (≈ 755 µM) in data set [1] (in benzene, read-out: FC12 solubility); 510 µg/mL (≈ 1240 µM) in data set [1] (in ethylacetate, read-out: FC12 solubility); 250 µg/mL (≈ 609 µM) in data set [1] (in o-xylene, read-out: FC12 solubility). For the same molecule, the solubility was 70400 µg/mL (≈ 171000 µM) in data set [1] (in pyridine, read-out: FC12 solubility) and 230 µg/mL (≈ 560 µM) in data set [1] (in toluene, read-out: FC12 solubility).
As for `Cc1cc2nc3c(=O)[nH]c(=O)nc-3n(C)c2cc1C` [Lumiflavin], the solubility in data set [1] (DMF (N,N-dimethyl formamide), in DMF, read-out: Lumiflavin solubility) came to 317 µg/mL (≈ 1240 µM); in data set [1] (THF (tetrahydrofuran), in THF, read-out: Lumiflavin solubility) it was 46.2 µg/mL (≈ 180 µM); in data set [1] (in acetone, read-out: Lumiflavin solubility), 53.9 µg/mL (≈ 210 µM); in data set [1] (in benzene, read-out: Lumiflavin solubility) it was 4.4 µg/mL (≈ 17.2 µM); in data set [1] (in ethylacetate, read-out: Lumiflavin solubility) it was 14.1 µg/mL (≈ 55 µM); in data set [1] (in o-xylene, read-out: Lumiflavin solubility), 5.9 µg/mL (≈ 23 µM). Besides, the solubility in data set [1] (in pyridine, read-out: Lumiflavin solubility) was 529 µg/mL (≈ 2060 µM); in data set [1] (in toluene, read-out: Lumiflavin solubility), 4.3 µg/mL (≈ 16.8 µM).
Regarding `Cc1cc2nc3c(=O)[nH]c(=O)nc-3n(C[C@H](O)[C@H](O)[C@H](O)CO)c2cc1C` [riboflavin], the “solubility in neutral aqueous media” value in data set [2] is reported as “insolubility”.
